Read-outs that look alike come from different tables or passages of the source. Square brackets hold non-standard residues; d marks the D form. Peptide text beside a SMILES is read from it. Phe(4-NO2) = N[C@@H](Cc1ccc([N+](=O)[O-])cc1)C(=O)O; Phe(4-Cl) = N[C@@H](Cc1ccc(Cl)cc1)C(=O)O; NMeR = CN[C@@H](CCCNC(=N)N)C(=O)O; Aoc = NCCCCCCCC(=O)O; Sar = CNCC(=O)O
Legend:
[1] = system: Freund's Complete Adjuvant model of inflammatory nociception; settings: rat, in vivo
[2] = target: Kappa opioid receptor (KOR) (Homo sapiens, UniProt P41145); experiment: cell-based; format: cell-based
Kappa opioid receptor (KOR), sequence (P41145 whole entry): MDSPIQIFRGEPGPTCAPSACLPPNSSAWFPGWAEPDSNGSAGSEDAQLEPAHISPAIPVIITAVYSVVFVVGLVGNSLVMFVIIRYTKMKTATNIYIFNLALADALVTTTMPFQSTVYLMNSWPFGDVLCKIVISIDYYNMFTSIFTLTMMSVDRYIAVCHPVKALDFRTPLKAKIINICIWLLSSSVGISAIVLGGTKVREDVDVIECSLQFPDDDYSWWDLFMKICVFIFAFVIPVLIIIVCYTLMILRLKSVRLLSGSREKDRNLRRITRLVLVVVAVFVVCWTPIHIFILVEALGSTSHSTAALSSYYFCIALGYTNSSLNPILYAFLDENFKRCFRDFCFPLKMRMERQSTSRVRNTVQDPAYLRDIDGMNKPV

[3] = target: Delta opioid receptor (DOR) (Homo sapiens, UniProt P41143); experiment: cell-based; format: cell-based
Delta opioid receptor (DOR), sequence (P41143 whole entry): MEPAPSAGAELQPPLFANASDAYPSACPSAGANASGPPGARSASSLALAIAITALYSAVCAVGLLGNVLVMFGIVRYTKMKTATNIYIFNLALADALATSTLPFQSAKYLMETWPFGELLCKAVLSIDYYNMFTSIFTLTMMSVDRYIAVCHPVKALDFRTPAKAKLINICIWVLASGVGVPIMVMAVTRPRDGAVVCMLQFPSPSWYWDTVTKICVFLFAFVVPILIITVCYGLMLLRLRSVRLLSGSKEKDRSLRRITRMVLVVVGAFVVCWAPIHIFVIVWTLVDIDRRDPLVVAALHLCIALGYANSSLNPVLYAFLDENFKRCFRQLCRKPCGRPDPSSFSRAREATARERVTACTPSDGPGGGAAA

Mu opioid receptor (MOR) = Mu opioid receptor (MOR) (Homo sapiens, UniProt P35372); experiment: cell-based; format: cell-based
Mu opioid receptor (MOR), sequence (P35372 whole entry): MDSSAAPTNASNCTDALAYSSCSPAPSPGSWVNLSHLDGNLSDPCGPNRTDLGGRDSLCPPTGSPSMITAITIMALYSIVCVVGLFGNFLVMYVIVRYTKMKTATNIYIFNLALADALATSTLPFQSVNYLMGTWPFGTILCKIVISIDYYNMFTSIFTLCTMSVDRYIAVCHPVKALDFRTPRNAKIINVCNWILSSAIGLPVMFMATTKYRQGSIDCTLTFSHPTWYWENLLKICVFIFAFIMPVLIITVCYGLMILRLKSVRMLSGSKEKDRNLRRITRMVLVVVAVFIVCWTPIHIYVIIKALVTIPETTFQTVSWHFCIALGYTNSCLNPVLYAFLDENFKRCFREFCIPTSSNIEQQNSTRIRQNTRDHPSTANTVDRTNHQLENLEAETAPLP

[4] = target: T1, bovine pancreatic trypsin (Bos taurus, UniProt P00760); experiment: Stability in bovine trypsin; format: in vitro ADME; settings: bovine pancreatic trypsin 2.5 μg/mL, NH4HCO3 buffer pH 8-8.5, 37° C., 100 μM peptide; for half-life at 100 µM: bovine pancreatic trypsin solution
T1 construct: from tissue; host or cells: bovine pancreas
T1 sequence (P00760 24-246): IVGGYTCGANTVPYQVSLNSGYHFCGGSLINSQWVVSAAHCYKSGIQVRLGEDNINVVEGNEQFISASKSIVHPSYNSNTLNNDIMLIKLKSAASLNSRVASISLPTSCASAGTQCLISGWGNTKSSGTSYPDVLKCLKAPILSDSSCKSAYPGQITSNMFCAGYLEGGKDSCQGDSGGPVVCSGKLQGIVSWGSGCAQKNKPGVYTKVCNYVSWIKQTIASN
Method: The stability of the peptides was analysed in typsin, plasma and water. Stability of linear peptides is generally low due to rapid degradation by endogenous peptidases and proteases. While stability in bodily fluids is important, absolute stability may not be prudent or desirable due to potential build-up in vivo leading to adverse side effects, and/or hazards to the environment and recirculation of exceptionally stable compounds in waterways. Thus, compounds that are extremely stable in either plasma or typsin are not generally considered “drug-like”.
Stability in bovine trypsin was analysed for SEQ ID Nos. 2 to 7 and 11 to 17. Peptides were added to trypsin solution (bovine pancreatic trypsin 2.5 μg/mL in NH4HCO3 buffer, pH approximately 8-8.5, 37° C.) in a water bath with final concentrations of 100 μM peptide. A 50 μL sample was taken immediately and precipitated in 150 μL of cold acetonitrile (9:1 acetonitrile:water) This sample became the baseline, or t=0 min sample. The trypsin peptide mixture was immediately returned to the water bath and subsequent 50 μL samples were taken at 5, 10, 15, 30, 60 and 120 min. At each time point, the 50 μL sample was collected and immediately added to cold acetonitrile (ACN). Each sample was vortexed for 30 sec and then centrifuged at room temperature (RT) (13K rpm, 5 min). 150 μL of the supernatant was taken and directly place in a glass HPLC vial for LCMS analysis.

Stability in rat plasma = format: in vitro ADME; settings: both sexes, Wistar, 37° C., 100 μM peptide
Method: Stability in plasma was assessed in rat plasma. Plasma was collected in-house from adult mixed-gender Wistar rats, prepared using 2% EDTA as per standard practice. Peptides were added to the rat plasma samples at 37° C. in a water bath with final concentrations of 100 μM (1:9 peptide in water:plasma). The assay was then carried out in the same manner as the assay in bovine trypsin.

Stability in water = format: physicochemical; settings: ultra-pure Milli-Q water
Method: Stability in water was carried out by incubating each candidate in ultra-pure, Milli-Q water (Millipore Corporation). Again, volumes, times and preparation protocols were exactly as described above in plasma stability method above.

KOR [5] = target: T2, KOR (Homo sapiens, UniProt P41145); experiment: biochemical; format: binding
T2 sequence (P41145 whole entry): as the sequence (P41145 whole entry) above

KOR [6] = target: T2, KOR; experiment: cell-based; format: cell-based
KOPr = KOPr (Homo sapiens, UniProt P41145); format: cell-based
KOPr, sequence (P41145 whole entry): as above

[7] = Pharmacokinetic parameters after i.v. administration in rats; format: in vivo; settings: rat; for half-life / clearance / Vd: iv, dose 0.3 mg/kg (SEQ ID NO. 19), 1 mg/kg (SEQ ID NO. 24); for clearance: read-out: CLtotal; for Vd: read-out: Vdss; for opioid-like adverse effects (e.g. respiratory depression, sedation): 0.3 mg/kg (SEQ ID NO 19), 1 mg/kg (SEQ ID NO 24)
From the text: Methods are as previously reported (Hill et al., ACS Med. Chem. Lett. 2014, 5(10), 1148-51; Lohman et al., Chem. Commun. (Camb), 2019, 55(89), 13362-13365; Neilsen et al., Org. Lett., 2012, 14(22), 5720-3; Neilsen et al, Chembiochem, 2015, 16(16), 2289-93; Justyna et al., Current Drug Targets, 2013, 14(7), 798-816)). Rats were surgically implanted with a jugular vein catheter (sterile polyethylene, o.d. 0.96 mm i.d. 0.58 mm, Microtube Extrusions, Aust.) and allowed to recover overnight. Baseline blood samples (t=0) were taken prior to peptide administration directly from the indwelling jugular vein catheter. Peptide was administered directly via the catheter (i.v route), followed by a 200 μL chaser volume of heparinised saline (20 U/mL) to flush the line. Further blood samples (200 μL/sample) were collected directly from the intravenous catheter at t=1, 5 15, 30, 60, 90 120 as 180 minutes post-administration. Volumes taken were replaced with heparinised saline to avoid hypovolaemia. Blood samples were immediately centrifuged (14 k rpm, 5 min) and plasma supernatant snap frozen on dry ice for later processing. Plasma samples were thawed and diluted 1 in 4 acetonitrile, vortexed, sonicated and centrifuged. Supernatants were transferred to HPLC vials for LCMS analysis.
A Triple Quad Mass-Spectrometer (model 6460, Agilent Technologies) coupled to a Bidentate C18 HPLC column (Cogent, 100 Å, 4 μM) was used to analyse all samples. Separations were carried out using a binary solvent gradient. A Multiple Reaction Monitoring (MRM) protocol was developed for each individual peptide to maximise sensitivity of the Mass-spec and optimise the Limit of Detection (LOD) from a serially diluted standard curve, performed in both acetonitrile solvent and neat rat plasma.
Samples were analysed using MassHunter Software packages, and area under the curve (AUC) was measured for each peak of interest in the MRM, as a direct measure of concentration of compound ions in the sample. AUCs were converted to plasma concentrations (Cp; μg/mL and μM) using the standard curves generated in plasma. Data was analysed using MS Excel software. A two compartment model was adopted to determine the pharmacokinetic properties of each peptide in the rat. The first phase describes the distribution throughout the circulatory compartment, and the second phase describes the elimination/steady state concentration in plasma/tissue. Plasma half-life, volume of distribution and clearance were determined from the steady-state elimination phase.

SMILES | cAMP assay KOR 1 μM [2] | cAMP assay KOR 10 μM [2] | EC50 [3] [nM] | cAMP assay DOR 1 μM [3] | cAMP assay DOR 10 μM [3] | EC50 (Mu opioid receptor (MOR)) [nM] | cAMP assay MOR 1 μM (Mu opioid receptor (MOR)) | cAMP assay MOR 10 μM (Mu opioid receptor (MOR)) | half-life at 100 µM (Stability in rat plasma) [h] | half-life at 100 µM (Stability in water) [h] | cAMP activity in the presence of naloxone, KOR cells [2] | KOR desensitisation (change of cAMP maximal response after pre-treatment) (KOR [6]) | bias factor (β) relative to U50488H (KOPr) | pERK1/2 activity (KOPr) | other results
CN1CC[C@]23c4c5ccc(O)c4O[C@H]2[C@@H](O)C=C[C@H]3[C@H]1C5 [Morphine, reference compound] | – | – | – | – | – | – | – | – | – | – | – | – | – | – | paw withdrawal threshold in the contralateral (uninflamed, untreated) paw at 120 minutes compared to baseline [1]: significantly reduced
CC(C)C[C@H](NC(=O)[C@H](Cc1ccccc1)NC(=O)CN(C)C(=O)[C@@H](N)Cc1ccc(O)cc1)C(=O)N[C@@H](CCCNC(=N)N)C(=O)N[C@@H](CCCNC(=N)N)C(N)=O [SEQ ID NO. 2, NH2-Tyr-Sar-Phe-Leu-Arg-Arg-NH2] (H-Y[Sar]FLRR-NH2) | 21.65 | 32.41 | > 10000 | −0.47 | 21.96 | 6700 | −2.5 | 12.41 | 1.61 | > 16.7 | – | – | – | – | half-life at 100 µM [4]: 0.03 h
CC(C)C[C@H](NC(=O)[C@H](Cc1ccc([N+](=O)[O-])cc1)NC(=O)CN(C)C(=O)[C@@H](N)Cc1ccc(O)cc1)C(=O)N[C@@H](CCCNC(=N)N)C(=O)N[C@H](CCCNC(=N)N)C(N)=O [SEQ ID NO. 4, NH2-Tyr-Sar-(4-NO2)Phe-Leu-Arg-DArg-NH2] (H-Y[Sar][Phe(4-NO2)]LR[dR]-NH2) | 34.93 | 40.29 | – | −0.75 | 2.04 | – | 0.17 | 2.52 | 1.18 | – | significantly inhibited | no sign of desensitisation | bias towards cAMP | failed to show any pERK activity | EC50 [2]: 8.4 nM; Half Life Trypsin [4]: 0.257 h; IC50 (KOR [5]; read-out: IC50): 30.2 nM; Ki (KOR [5]; read-out: Ki): 2.8 nM; Area under the curve (AUC) efficacy compared to U50488H [1]: significantly better efficacy than U50488H
CC(C)C[C@H](NC(=O)[C@H](Cc1ccc([N+](=O)[O-])cc1)NC(=O)CN(C)C(=O)[C@@H](N)Cc1ccc(O)cc1)C(=O)N(C)[C@@H](CCCNC(=N)N)C(=O)N(C)[C@@H](CCCNC(=N)N)C(N)=O [SEQ ID NO. 19, NH2-Tyr-Sar-(4-NO2)Phe-Leu-NMA-NMA-NH2] (H-Y[Sar][Phe(4-NO2)]L[NMeR][NMeR]-NH2) | – | – | – | – | – | – | – | – | – | – | significantly inhibited | no sign of desensitisation | bias towards cAMP | failed to show any pERK activity | EC50 ([2]; read-out: Activity (EC50, nM) KOR): 31.1 nM; Log IC50 (KOR [5]): −5.71; IC50 (KOR [5]; read-out: IC50): 1950 nM; Ki (KOR [5]; read-out: Ki): 180 nM; half-life ([7]; in vivo): 0.398 h; clearance ([7]; in vivo): 5.7 mL/min/kg; Vd ([7]; in vivo): 0.4 L/kg; opioid-like adverse effects (e.g. respiratory depression, sedation) [7]: no sign of opioid-like adverse effects; Area under the curve (AUC) efficacy compared to U50488H [1]: significantly better efficacy than U50488H; Efficacy Index (Ie) relative to morphine [1]: statistically significantly greater Ie over morphine
CC(C)C[C@H](NC(=O)[C@H](Cc1ccc(Cl)cc1)NC(=O)CN(C)C(=O)[C@@H](N)Cc1ccc(O)cc1)C(=O)N[C@@H](CCCNC(=N)N)C(=O)N[C@H](CCCNC(=N)N)C(=O)NCCCCCCCC(N)=O [SEQ ID NO. 24, NH2-Tyr-Sar-(4-Cl)Phe-Leu-Arg-DArg-C7H14-CONH2] (H-Y[Sar][Phe(4-Cl)]LR[dR][Aoc]-NH2) | – | – | > 10000 | – | – | > 10000 | – | – | – | – | significantly inhibited | modest desensitisation | bias towards cAMP | some influence over pERK induction | EC50 [2]: 3.87 nM; IC50 (KOR [5]): 72.6 nM; Ki (KOR [5]): 6.7 nM; half-life ([7]; plasma): 0.213 h; clearance ([7]; plasma): 26.3 mL/min/kg; Vd ([7]; plasma): 1.7 L/kg; opioid-like adverse effects (e.g. respiratory depression, sedation) [7]: No adverse effects were observed; Efficacy Index (Ie) relative to morphine [1]: statistically significantly greater Ie over morphine
CC(C)C[C@@H](NC(=O)[C@@H](Cc1ccccc1)NC(=O)[C@H](N)Cc1ccccc1)C(=O)N[C@H](CCCCN)C(=O)N1CCC(N)(C(=O)O)CC1 [SEQ ID NO. 35, DPhe-DPhe-DLeu-DLys-Cap-CO2H, reference compound] | 25.93 | 34.61 | > 10000 | −5.72 | 3.27 | > 10000 | 0.37 | 8.07 | 10.8 | > 16.7 | – | significant reduction maximal effect | no bias either way | time and concentration dependent pERK expression | half-life at 100 µM [4]: 17.6 h
CC(C)C[C@H](NC(=O)[C@H](Cc1ccccc1)NC(=O)CNC(=O)CNC(=O)[C@@H](N)Cc1ccc(O)cc1)C(=O)N[C@@H](CCCNC(=N)N)C(=O)N[C@@H](CCCNC(=N)N)C(=O)O [SEQ ID NO. 38, Tyr-Gly-Gly-Phe-Leu-Arg-Arg, reference compound] | – | – | – | – | – | – | – | – | – | > 16.7 | – | did not show any desensitisation | – | – | EC50 ([3]; read-out: Activity (EC50, nM) DOR): 870 nM; EC50 (Mu opioid receptor (MOR); read-out: Activity (EC50, nM) MOR): 3740 nM

Reference: patent US20240301023A1 (priority 2020, published 2024)
